Consider one compound from patent US20040063730A1, “Pharmacuetical formulation comprising puyrazolo[4,-3-d]pyrimidines and antithrombotics, calcium antagonists, or prostaglandins or prostaglandin derivatives” (priority 2000, published 2004).

With `CCCc1nn(C)c2c(NCc3ccc(OC)c(Cl)c3)nc(CCC(=O)O)nc12` [Example 2, 3-[7-(3-chloro-4-methoxybenzylamino)-1-methyl-3-propyl-1H-pyrazolo-[4,3-d]pyrimidin-5-yl]propionic acid], the melting point (as a rule, the temperature, or range, at which the solid turns liquid) is 178 °C.
